Data published in patent US20070238731A1, “Dna-Pk Inhibitors” (KUDOS PHARMACEUTICALS LIMITED, priority 2004, published 2007).

How the values were obtained:
HeLa cells = test: Survival Enhancement Ratio (clonogenic survival assay after 2 Gray irradiation); type: cell-based; conditions: inhibitor 100 nM
Protocol: Gray irradiation was calculated from the formula: [formula] The degree of cell killing was monitored by a standard clonogenic survival assay. […] Four hours later, compound or vehicle control was added to the cells. […] The cells were then incubated for a further 16 hours before the media was replaced with fresh media in the absence of DNA-PK inhibitor. After 8 days, colonies formed were fixed and stained with Giemsa (Sigma, Poole, UK) and scored using an automated colony counter (Oxford Optronics Ltd, Oxford, UK). The data was calculated as described above.

DNA-PK = DNA-PK (Homo sapiens, UniProt P78527); conditions: read-out: IC50 towards DNA-PK; cited from earlier work
PI 3-kinase = conditions: stated to be the same as for DNA-PK; cited from earlier work
cells = conditions: cited from earlier work

## O=c1cc(N2CCOCC2)oc2c(-c3cccc4c3sc3ccccc34)cccc12
HeLa cells
  Survival Enhancement Ratio (SER): 1.3

## O=C(CCNCC1CCCO1)Nc1ccc(-c2cccc3c(=O)cc(N4CCOCC4)oc23)c2sc3ccccc3c12 (centres unmarked) [Compound 53]
other
  melting point: 148 °C

## O=c1cc(N2CCOCC2)oc2c(-c3ccccc3)cccc12 [LY294002]
DNA-PK
  IC50: ~1 µM
PI 3-kinase
  IC50: ~1 µM
cells
  sensitisation of cells to the effects of IR: weakly sensitise cells to the effects of IR
